Measurements as given in patent US20230167073A1 (Teijin Pharma Limited, priority 2020, published 2023).

Biological target: T1, Human TRPC6 (Homo sapiens, UniProt Q9Y210)
T1 construct: expressed in transfected cells
T1 sequence (Q9Y210 1-931): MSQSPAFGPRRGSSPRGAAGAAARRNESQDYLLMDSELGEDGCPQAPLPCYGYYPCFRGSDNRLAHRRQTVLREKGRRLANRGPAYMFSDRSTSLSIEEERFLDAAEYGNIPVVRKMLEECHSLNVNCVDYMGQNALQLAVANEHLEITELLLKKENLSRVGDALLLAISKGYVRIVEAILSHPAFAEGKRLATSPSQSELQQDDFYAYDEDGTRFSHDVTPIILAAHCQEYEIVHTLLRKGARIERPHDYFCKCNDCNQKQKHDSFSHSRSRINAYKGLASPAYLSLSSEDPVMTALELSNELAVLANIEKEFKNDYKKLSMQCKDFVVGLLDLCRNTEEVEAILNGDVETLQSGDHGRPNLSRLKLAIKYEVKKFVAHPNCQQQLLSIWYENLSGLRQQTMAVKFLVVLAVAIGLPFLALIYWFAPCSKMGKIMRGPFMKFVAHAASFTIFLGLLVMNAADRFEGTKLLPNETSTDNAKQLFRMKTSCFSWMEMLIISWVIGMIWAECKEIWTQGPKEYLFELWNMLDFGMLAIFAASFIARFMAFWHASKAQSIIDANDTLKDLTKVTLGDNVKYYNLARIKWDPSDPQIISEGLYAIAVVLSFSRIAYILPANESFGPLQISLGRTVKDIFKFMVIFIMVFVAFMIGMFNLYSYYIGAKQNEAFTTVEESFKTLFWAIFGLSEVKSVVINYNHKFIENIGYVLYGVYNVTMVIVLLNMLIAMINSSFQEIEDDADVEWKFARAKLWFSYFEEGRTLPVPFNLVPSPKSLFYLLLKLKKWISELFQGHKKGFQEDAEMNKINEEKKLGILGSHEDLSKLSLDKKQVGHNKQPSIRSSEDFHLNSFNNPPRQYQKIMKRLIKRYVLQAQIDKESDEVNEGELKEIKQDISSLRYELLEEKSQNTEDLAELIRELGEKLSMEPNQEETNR
Experiment: Evaluation of TRPC6 channel inhibitory activity (1), FLIPR Calcium 5 Assay Kit, OAG stimulation (Compound Nos. 1-1293)
Format: cell-based
Details: Human TRPC6 stably-expressing cells, OAG 30 μM, FLIPR Calcium 5 Assay Kit; read-out: Inhibitory activity (pIC50 class) (converted)
Method in brief: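 Calcium influx read by FLIPR fluorescence in cells stably expressing human TRPC6, dye-loaded 30 min. Compounds preincubated 20 min, then OAG stimulation at 30 μM final. Inhibition fitted by four-parameter logistic regression to give pIC50, reported as +/++/+++ categories.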

Row | IC50 [nM] | Compound
1 | < 10 | N#Cc1ccc(-c2ccc(CCN)cn2)c(Cn2cnc(-c3ccccc3F)c2)c1 [compound 1143, 4-[5-(2-aminoethyl)pyridin-2-yl]-3-[[4-(2-fluorophenyl)imidazol-1-yl]methyl]benzonitrile]
2 | < 10 | N#Cc1ccc(-c2ccc(CCN)cn2)c(Cn2cnc(-c3ccccc3Cl)c2)c1 [compound 1144, 4-[5-(2-aminoethyl)pyridin-2-yl]-3-[[4-(2-chlorophenyl)imidazol-1-yl]methyl]benzonitrile]
3 | < 10 | Cc1ccccc1-c1cn(Cc2cc(C#N)ccc2-c2ccc(CCN)cn2)cn1 [compound 1145, 4-[5-(2-aminoethyl)pyridin-2-yl]-3-[[4-(2-methylphenyl)imidazol-1-yl]methyl]benzonitrile]
4 | 10 to 1000 | Cc1ccc(-c2cn(Cc3cc(C#N)ccc3-c3ccc(CCN)cn3)cn2)cc1 [compound 1146, 4-[5-(2-aminoethyl)pyridin-2-yl]-3-[[4-(4-methylphenyl)imidazol-1-yl]methyl]benzonitrile]
5 | < 10 | N#Cc1ccc(-c2ccc(CCN)cn2)c(Cn2cnc(-c3ccc(F)cc3)c2)c1 [compound 1147, 4-[5-(2-aminoethyl)pyridin-2-yl]-3-[[4-(4-fluorophenyl)imidazol-1-yl]methyl]benzonitrile]
6 | < 10 | Cc1cccc(-c2cn(Cc3cc(C#N)ccc3-c3ccc(CCN)cn3)cn2)c1 [compound 1148, 4-[5-(2-aminoethyl)pyridin-2-yl]-3-[[4-(3-methylphenyl)imidazol-1-yl]methyl]benzonitrile]
7 | < 10 | N#Cc1ccc(-c2ccc(CCN)cn2)c(Cn2cnc(-c3cccc(F)c3)c2)c1 [compound 1149, 4-[5-(2-aminoethyl)pyridin-2-yl]-3-[[4-(3-fluorophenyl)imidazol-1-yl]methyl]benzonitrile]
8 | < 10 | Cc1nc(-c2ccccc2)cn1Cc1cc(C#N)ccc1-c1ccc(CCN)cn1 [compound 1150, 4-[5-(2-aminoethyl)pyridin-2-yl]-3-[(2-methyl-4-phenylimidazol-1-yl)methyl]benzonitrile]
9 | < 10 | Cc1ccccc1-c1cn(Cc2cc(C#N)ccc2-c2ccc(CCN)cn2)c(C)n1 [compound 1151, 4-[5-(2-aminoethyl)pyridin-2-yl]-3-[[2-methyl-4-(2-methylphenyl)imidazol-1-yl]methyl]benzonitrile]
10 | < 10 | Cc1nc(-c2ccccc2F)cn1Cc1cc(C#N)ccc1-c1ccc(CCN)cn1 [compound 1152, 4-[5-(2-aminoethyl)pyridin-2-yl]-3-[[4-(2-fluorophenyl)-2-methylimidazol-1-yl]methyl]benzonitrile]
11 | > 1000 | Cc1cc(-c2ccccc2)nn1Cc1cc(C#N)ccc1-c1ccc(CCN)cn1 [compound 1158, 4-[5-(2-aminoethyl)pyridin-2-yl]-3-[(5-methyl-3-phenylpyrazol-1-yl)methyl]benzonitrile]
12 | > 1000 | N#Cc1ccc(-c2ccc(CCN)cn2)c(Cn2cnc(-c3ccccn3)c2)c1 [compound 1160, 4-[5-(2-aminoethyl)pyridin-2-yl]-3-[(4-pyridin-2-ylimidazol-1-yl)methyl]benzonitrile]

The remaining lines, values behind:

Row | Compound | IC50 [nM]
13 | CCC(OC)c1cn(Cc2cc(C#N)ccc2-c2ncc(CCN)cn2)c(C)n1 (stereo not drawn) [compound 1142, 4-[5-(2-aminoethyl)pyrimidin-2-yl]-3-[[4-(1-methoxypropyl)-2-methylimidazol-1-yl]methyl]benzonitrile] | 10 to 1000
14 | Cc1ccc(-c2cn(Cc3cc(C#N)ccc3-c3ccc(CCN)cn3)c(C)n2)cc1 [compound 1153, 4-[5-(2-aminoethyl)pyridin-2-yl]-3-[[2-methyl-4-(4-methylphenyl)imidazol-1-yl]methyl]benzonitrile] | < 10
15 | Cc1nc(-c2ccc(F)cc2)cn1Cc1cc(C#N)ccc1-c1ccc(CCN)cn1 [compound 1154, 4-[5-(2-aminoethyl)pyridin-2-yl]-3-[[4-(4-fluorophenyl)-2-methylimidazol-1-yl]methyl]benzonitrile] | < 10
16 | Cc1cccc(-c2cn(Cc3cc(C#N)ccc3-c3ccc(CCN)cn3)c(C)n2)c1 [compound 1155, 4-[5-(2-aminoethyl)pyridin-2-yl]-3-[[2-methyl-4-(3-methylphenyl)imidazol-1-yl]methyl]benzonitrile] | < 10
17 | Cc1nc(-c2cccc(F)c2)cn1Cc1cc(C#N)ccc1-c1ccc(CCN)cn1 [compound 1156, 4-[5-(2-aminoethyl)pyridin-2-yl]-3-[[4-(3-fluorophenyl)-2-methylimidazol-1-yl]methyl]benzonitrile] | < 10
18 | Cc1nc(-c2ccccn2)cn1Cc1cc(C#N)ccc1-c1ccc(CCN)cn1 [compound 1157, 4-[5-(2-aminoethyl)pyridin-2-yl]-3-[(2-methyl-4-pyridin-2-ylimidazol-1-yl)methyl]benzonitrile] | 10 to 1000
19 | Cc1cc(C(C)(C)C)nn1Cc1cc(C#N)ccc1-c1ccc(CCN)cn1 [compound 1159, 4-[5-(2-aminoethyl)pyridin-2-yl]-3-[(3-tert-butyl-5-methylpyrazol-1-yl)methyl]benzonitrile] | 10 to 1000
20 | Cc1nc(-c2cccc(F)c2)cn1Cc1cc(C#N)ccc1-c1ccc([C@H](O)CN)cn1 [compound 1161, 4-[5-[(1S)-2-amino-1-hydroxyethyl]pyridin-2-yl]-3-[[4-(3-fluorophenyl)-2-methylimidazol-1-yl]methyl]benzonitrile] | 10 to 1000
21 | Cc1nc(-c2cccc(F)c2)cn1Cc1cc(C#N)ccc1-c1ncc([C@H](O)CN)cn1 [compound 1162, 4-[5-[(1S)-2-amino-1-hydroxyethyl]pyrimidin-2-yl]-3-[[4-(3-fluorophenyl)-2-methylimidazol-1-yl]methyl]benzonitrile] | 10 to 1000
22 | Cc1nc(C2CCOCC2)cn1Cc1cc(C#N)ccc1-c1ccc(CN)cn1 [compound 1163, 4-[5-(aminomethyl)pyridin-2-yl]-3-[[2-methyl-4-(oxan-4-yl)imidazol-1-yl]methyl]benzonitrile] | 10 to 1000
23 | Cc1nc(C2CCOCC2)cn1Cc1cc(C#N)ccc1-c1ncc(CN)cn1 [compound 1164, 4-[5-(aminomethyl)pyrimidin-2-yl]-3-[[2-methyl-4-(oxan-4-yl)imidazol-1-yl]methyl]benzonitrile] | 10 to 1000
24 | Cc1nc(C2CCOCC2)cn1Cc1cc(C#N)ccc1-c1ccc([C@H](O)CN)cn1 [compound 1165] | > 1000
25 | Cc1nc(C2CCOCC2)cn1Cc1cc(C#N)ccc1-c1ncc([C@H](O)CN)cn1 [compound 1166] | > 1000
26 | N#Cc1ccc(-c2ncc(CCN)cn2)c(Cn2cc(-c3ccccc3)nn2)c1 [compound 1167, 4-[5-(2-aminoethyl)pyrimidin-2-yl]-3-[(4-phenyltriazol-1-yl)methyl]benzonitrile] | < 10
27 | N#Cc1ccc(-c2ncc(CN)cn2)c(Cn2cc(-c3ccccc3)nn2)c1 [compound 1168, 4-[5-(aminomethyl)pyrimidin-2-yl]-3-[(4-phenyltriazol-1-yl)methyl]benzonitrile] | 10 to 1000
28 | N#Cc1ccc(-c2ncc(CCN)cn2)c(Cn2ncc(-c3ccccc3)n2)c1 [compound 1169, 4-[5-(2-aminoethyl)pyrimidin-2-yl]-3-[(4-phenyltriazol-2-yl)methyl]benzonitrile] | > 1000
29 | N#Cc1ccc(-c2ncc(CN)cn2)c(Cn2ncc(-c3ccccc3)n2)c1 [compound 1170, 4-[5-(aminomethyl)pyrimidin-2-yl]-3-[(4-phenyltriazol-2-yl)methyl]benzonitrile] | > 1000
30 | Cc1nc(C(C)C)cn1Cc1cc(C#N)ccc1-c1ncc(CCN)cn1 [compound 1171, 4-[5-(2-aminoethyl)pyrimidin-2-yl]-3-[(2-methyl-4-propan-2-ylimidazol-1-yl)methyl]benzonitrile] | 10 to 1000
31 | Cc1nc(C(C)C)cn1Cc1cc(C#N)ccc1-c1ncc(CN)cn1 [compound 1172, 4-[5-(aminomethyl)pyrimidin-2-yl]-3-[(2-methyl-4-propan-2-ylimidazol-1-yl)methyl]benzonitrile] | 10 to 1000
32 | Cc1nc(C(F)(F)F)cn1Cc1cc(C#N)ccc1-c1ncc(CCN)cn1 [compound 1173, 4-[5-(2-aminoethyl)pyrimidin-2-yl]-3-[[2-methyl-4-(trifluoromethyl)imidazol-1-yl]methyl]benzonitrile] | < 10
33 | Cc1nc(C(F)(F)F)cn1Cc1cc(C#N)ccc1-c1ncc(CN)cn1 [compound 1174, 4-[5-(aminomethyl)pyrimidin-2-yl]-3-[[2-methyl-4-(trifluoromethyl)imidazol-1-yl]methyl]benzonitrile] | 10 to 1000
